In one assay the target is D2 receptor (Homo sapiens (Human), UniProt P14416). As to the kind of experiment: Radioligand binding ([3H]-spiperone) to cloned D2 receptor expressed in HEK-293 EBNA cells. To be noted: HEK293 EBNA membranes, 0.7 nM [3H]-spiperone. As to the method:
(§1) HEK293 EBNA cells were transiently transfected with expression plasmids encoding for the human D2 or D3 or for the human 5-HT2A receptor, respectively. The cells were harvested 48 h post-transfection, washed three times with cold PBS and stored at −80° C. prior to use. The pellet was suspended in cold 50 mM Tris-HCl buffer containing 10 mM EDTA (pH 7.4) and was homogenized with a Polytron (Kinematica AG, Basel, Switzerland) for 20-30 sec at 12.000 rpm. After centrifugation at 48.000×g for 30 min at 4° C., the pellet was resuspended in cold 10 mM Tris-HCl buffer containing 0.1 mM EDTA (pH 7.4), homogenized, and centrifuged as above. This pellet was further resuspended in a smaller volume of ice cold 10 mM Tris-HCl buffer containing 0.1 mM EDTA (pH 7.4) and homogenized with a Polytron for 20-30 sec at 12.000 rpm. The protein content of this homogenate was determined with the Bio-Rad (Bradford) Protein Assay (Biorad Laboratories GmbH, München, Germany) according to the instructions of the manufacturer using gamma globulin as the standard. This homogenate was stored at −80° C. in aliquots and thawed immediately prior to use.
(§2) Radioligand Binding Assay
(§3) Aliquots of membrane preparations were thawed at RT, resupended in assay buffer (D2, D3: 50 mM Tris-HCl, 120 mM NaCl, 5 mM MgCl2, 1 mM EDTA, 5 mM KCl, 1.5 mM CaCl2, pH=7.4; 5-HT2A: 50 mM Tris-HCl, 10 mM MgCl2, 1 mM EGTA, pH=7.4), homogenized with a Polytron for 20-30 sec at 12.000 rpm and adjusted to a final concentration of approximately 7.5 μg protein/well (D2, D3) and 15 μg protein/well (5-HT2A), respectively.
The binding affinity (Ki) of the compounds was determined using radioligand binding. […] The nonspecific binding was determined with equally composed reaction mixtures in the presence of 10 μM unlabelled spiperone. Per well 45 μl of Microscint 40 (Perkin Elmer, Schwerzenbach, Switzerland) was added, plates for sealed, shaken for 20 min and counted for 3 min on a Topcount Microplate Scintillation Counter (Canberra Packard SA, Zürich, Switzerland) with quenching correction.
(§4) The CPM value for each duplicate of a concentration of competing compound was averaged (y1), then the % specific binding was calculated according to the equation (((y1−non-specific)/(total binding−non-specific))×100). Graphs were plotted with the % specific binding using XLfit, a curve fitting program that iteratively plots the data using Levenberg-Marquardt algorithm. The single site competition analysis equation used was y=A+((B−A)/(1+((x/C)D))), where y is the % specific binding, A is the minimum y, B is the maximum y, C is the IC50, x is the log 10 of the concentration of the competing compound and D is the slope of the curve (the Hill Coefficient). […] The affinity constant (Ki) was calculated using the Cheng-Prusoff equation Ki=(IC50/1+([L]/Kd), where [L] is the concentration of radioligand and Kd is the dissociation constant of the radioligand at the receptor as determined by the saturation isotherm.

A further assay concerns the target D3 receptor (Homo sapiens (Human), UniProt P35462). Briefly: Radioligand binding ([3H]-spiperone) to cloned D3 receptor expressed in HEK-293 EBNA cells. The settings on record: HEK293 EBNA membranes, 0.5 nM [3H]-spiperone. The protocol:
as §1, §2, §3
The binding affinity (Ki) of the compounds was determined using radioligand binding. […] At the end of the incubation, the reaction mixtures were filtered on to unifilter 96-well white microplates with bonded GF/C filters (Packard BioScience, Zürich, Switzerland; preincubated for 1 h in 0.1% polyethylenimine (PEI) in assay buffer) with a Filtermate 196 harvester (Packard BioScience) and washed 3 times with cold assay buffer. The nonspecific binding was determined with equally composed reaction mixtures in the presence of 10 μM unlabelled spiperone. Per well 45 μl of Microscint 40 (Perkin Elmer, Schwerzenbach, Switzerland) was added, plates for sealed, shaken for 20 min and counted for 3 min on a Topcount Microplate Scintillation Counter (Canberra Packard SA, Zürich, Switzerland) with quenching correction.
as §4

D3 receptor, sequence (P35462 whole entry): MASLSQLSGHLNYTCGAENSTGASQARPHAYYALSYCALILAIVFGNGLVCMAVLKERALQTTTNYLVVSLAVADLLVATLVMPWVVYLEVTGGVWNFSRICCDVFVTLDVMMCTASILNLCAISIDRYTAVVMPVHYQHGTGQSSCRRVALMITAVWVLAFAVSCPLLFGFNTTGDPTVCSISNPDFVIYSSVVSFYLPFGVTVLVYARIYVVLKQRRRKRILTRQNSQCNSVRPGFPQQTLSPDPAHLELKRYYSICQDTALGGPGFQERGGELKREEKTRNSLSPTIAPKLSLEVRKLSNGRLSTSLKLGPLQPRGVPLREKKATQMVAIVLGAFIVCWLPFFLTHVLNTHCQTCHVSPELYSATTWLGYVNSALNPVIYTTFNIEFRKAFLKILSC
D2 receptor, sequence (P14416 whole entry): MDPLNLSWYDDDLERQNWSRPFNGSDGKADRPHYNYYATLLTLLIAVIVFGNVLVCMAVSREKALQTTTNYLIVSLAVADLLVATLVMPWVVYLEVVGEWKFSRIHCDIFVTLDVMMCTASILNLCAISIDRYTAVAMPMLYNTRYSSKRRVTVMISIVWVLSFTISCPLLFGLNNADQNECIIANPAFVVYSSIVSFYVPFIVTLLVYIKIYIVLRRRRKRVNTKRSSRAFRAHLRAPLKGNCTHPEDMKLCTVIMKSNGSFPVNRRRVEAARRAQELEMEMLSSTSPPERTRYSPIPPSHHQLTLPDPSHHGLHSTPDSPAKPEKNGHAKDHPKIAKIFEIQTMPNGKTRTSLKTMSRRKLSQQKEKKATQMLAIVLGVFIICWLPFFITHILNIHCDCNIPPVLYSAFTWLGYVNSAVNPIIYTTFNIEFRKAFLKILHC

Take `C[C@@H](O)C(=O)N[C@H]1CC[C@H](CCN2CCN(c3cccc4c3OCO4)CC2)CC1` [Example 42, (R)-Trans-N-{4-[2-(4-Benzo[1,3]dioxol-4-yl-piperazin-1-yl)-ethyl]-cyclohexyl}-2-hydroxy-propionamide]: the figures for the Ki on D2 receptor and at D3 receptor were 89.8 nM and 2.17 nM, respectively.

In the case of `O=C(N[C@H]1CC[C@H](CCN2CCN(c3cccc4c3OCO4)CC2)CC1)c1ccc(F)cc1` [Example 46, Trans-N-{4-[2-(4-Benzo[1,3]dioxol-4-yl-piperazin-1-yl)-ethyl]-cyclohexyl}-4-fluoro-benzamide], the results for the Ki on D2 receptor and at D3 receptor were 82.5 nM and 3.79 nM, respectively.

In the case of `O=C(N[C@H]1CC[C@H](CCN2CCN(c3cccc4c3OCO4)CC2)CC1)c1ccnc2ccccc12` [Example 47, Quinoline-4-carboxylic acid-trans-N-{4-[2-(4-benzo[1,3]dioxol-4-yl-piperazin-1-yl)-ethyl]-cyclohexyl}-amide], the results for the Ki at D2 receptor and on D3 receptor were 509 nM and 2.4 nM, respectively.

Turning to `O=C(N[C@H]1CC[C@H](CCN2CCN(c3cccc4c3OCO4)CC2)CC1)c1cccnc1` [Example 48, Trans-N-{4-[2-(4-Benzo[1,3]dioxol-4-yl-piperazin-1-yl)-ethyl]-cyclohexyl}-nicotinamide], the values for the Ki on D2 receptor and on D3 receptor were 88.2 nM and 1.79 nM, respectively.

For `O=C(N[C@H]1CC[C@H](CCN2CCN(c3cccc4c3OCO4)CC2)CC1)C1COc2ccccc2C1` (stereo partly drawn) [Example 50, Chroman-3-carboxylic acid-trans-N-{4-[2-(4-benzo[1,3]dioxol-4-yl-piperazin-1-yl)-ethyl]-cyclohexyl}-amide], the figures for the Ki at D2 receptor and on D3 receptor were 572 nM and 0.87 nM, respectively.

Turning to `O=C(Cc1ccc2c(c1)OCO2)N[C@H]1CC[C@H](CCN2CCN(c3cccc4c3OCO4)CC2)CC1` [Example 51, 2-Benzo[1,3]dioxol-5-yl-trans-N-{4-[2-(4-benzo[1,3]dioxol-4-yl-piperazin-1-yl)-ethyl]-cyclohexyl}-acetamide], the Ki at D2 receptor turned out to be 681 nM; on D3 receptor, 2.11 nM.

For `O=C(CC1CCOCC1)N[C@H]1CC[C@H](CCN2CCN(c3cccc4c3OCO4)CC2)CC1` [Example 53, N-trans-{4-[2-(4-Benzo[1,3]dioxol-4-yl-piperazin-1-yl)-ethyl]-cyclohexyl}-2-(tetrahydro-pyran-4-yl)-acetamide], the Ki worked out at 139 nM at D2 receptor and 2.09 nM on D3 receptor.

As to `O=C(N[C@H]1CC[C@H](CCN2CCN(c3cccc4c3OCO4)CC2)CC1)C1CCC1` [Example 54, Cyclobutanecarboxylic acid-trans-N-{4-[2-(4-benzo[1,3]dioxol-4-yl-piperazin-1-yl)-ethyl]-cyclohexyl}-amide], the Ki turned out to be 91.1 nM at D2 receptor and 1.97 nM on D3 receptor.

As for `CS(=O)(=O)CC(=O)N[C@H]1CC[C@H](CCN2CCN(c3cccc4c3OCO4)CC2)CC1` [Example 55, Trans-N-{4-[2-(4-Benzo[1,3]dioxol-4-yl-piperazin-1-yl)-ethyl]-cyclohexyl}-2-methanesulfonyl-acetamide], the Ki on D2 receptor was 95.4 nM; at D3 receptor, 1.45 nM.

With `N#Cc1ccc(C(=O)N[C@H]2CC[C@H](CCN3CCN(c4cccc5c4OCO5)CC3)CC2)cc1` [Example 59, Trans-N-{4-[2-(4-Benzo[1,3]dioxol-4-yl-piperazin-1-yl)-ethyl]-cyclohexyl}-4-cyano-benzamide], the Ki amounted to 101 nM at D2 receptor and 3.55 nM at D3 receptor.

Consider `O=C(N[C@H]1CC[C@H](CCN2CCN(c3cccc4c3OCO4)CC2)CC1)C1CC(Cl)C1` (stereo partly drawn) [Example 60, 3-Chloro-cyclobutanecarboxylic acid-trans-N-{4-[2-(4-benzo[1,3]dioxol-4-yl-piperazin-1-yl)-ethyl]-cyclohexyl}-amide], for which the figures for the Ki on D2 receptor and at D3 receptor were 81.1 nM and 2.98 nM, respectively.

Take `COC(C)(C)C(=O)N[C@H]1CC[C@H](CCN2CCN(c3cccc4c3OCO4)CC2)CC1` [Example 63, Trans-N-{4-[2-(4-Benzo[1,3]dioxol-4-yl-piperazin-1-yl)-ethyl]-cyclohexyl}-2-methoxy-2-methyl-propionamide]: the Ki stood at 117 nM at D2 receptor and 27.4 nM at D3 receptor.

With `CO[C@@H](C(=O)N[C@H]1CC[C@H](CCN2CCN(c3cccc4c3OCO4)CC2)CC1)C(C)C` [Example 64, (R)-trans-N-{4-[2-(4-Benzo[1,3]dioxol-4-yl-piperazin-1-yl)-ethyl]-cyclohexyl}-2-methoxy-3-methyl-butyramide], the Ki was 89.5 nM at D2 receptor and 14.7 nM at D3 receptor.

Regarding `CO[C@H](C(=O)N[C@H]1CC[C@H](CCN2CCN(c3cccc4c3OCO4)CC2)CC1)C(C)C` [Example 65, (S)-trans-N-{4-[2-(4-Benzo[1,3]dioxol-4-yl-piperazin-1-yl)-ethyl]-cyclohexyl}-2-methoxy-3-methyl-butyramide], the results for the Ki at D2 receptor and on D3 receptor were 112 nM and 19.9 nM, respectively.

For the compound `O=S(=O)(CC(F)(F)F)N[C@H]1CC[C@H](CCN2CCN(c3cccc4c3OCO4)CC2)CC1` [Example 66, 2,2,2-Trifluoro-ethanesulfonic acid-trans-N-{4-[2-(4-benzo[1,3]dioxol-4-yl-piperazin-1-yl)-ethyl]-cyclohexyl}-amide], the Ki on D2 receptor was determined as 73.8 nM; on D3 receptor it was 1.88 nM.

For `O=S(=O)(N[C@H]1CC[C@H](CCN2CCN(c3cccc4c3OCO4)CC2)CC1)c1ccc(F)cc1` [Example 68, N-trans-{4-[2-(4-Benzo[1,3]dioxol-4-yl-piperazin-1-yl)-ethyl]-cyclohexyl}-4-fluoro-benzenesulfonamide], the Ki on D2 receptor came out at 46.2 nM; on D3 receptor, 2.2 nM.

As to `O=C(N[C@H]1CC[C@H](CCN2CCN(c3cccc4c3OCO4)CC2)CC1)C(F)(F)F` [Example 70, N-trans-{4-[2-(4-Benzo[1,3]dioxol-4-yl-piperazin-1-yl)-ethyl]-cyclohexyl}-2,2,2-trifluoro-acetamide], the Ki came to 113 nM on D2 receptor and 4.91 nM on D3 receptor.

`O=C(N[C@H]1CC[C@H](CCN2CCN(c3cccc4c3OCO4)CC2)CC1)N1CCc2ccccc21` [Example 71, 2,3-Dihydro-indole-1-carboxylic acid-trans-N-{4-[2-(4-benzo[1,3]dioxol-4-yl-piperazin-1-yl)-ethyl]-cyclohexyl}-amide]: the Ki on D2 receptor worked out at 241 nM; on D3 receptor, 2.01 nM.

With `CN(C)C(=O)N[C@H]1CC[C@H](CCN2CCN(c3cccc4c3OCO4)CC2)CC1` [Example 72, N-trans-3-{4-[2-(4-Benzo[1,3]dioxol-4-yl-piperazin-1-yl)-ethyl]-cyclohexyl}-1,1-dimethyl-urea], the Ki at D2 receptor was 30.4 nM; on D3 receptor, 11.2 nM.

On to `O=C(C[C@H]1C[C@H](CO)C1)N[C@H]1CC[C@H](CCN2CCN(c3cccc4c3OCO4)CC2)CC1` [Example 74, N-trans-{4-[2-(4-Benzo[1,3]dioxol-4-yl-piperazin-1-yl)-ethyl]-cyclohexyl}-2-(3-hydroxymethyl-cyclobutyl)-acetamide], for which the Ki at D2 receptor was 117 nM; on D3 receptor, 2.44 nM.

Consider `O=C(Nc1ccc(Cl)cc1)N[C@H]1CC[C@H](CCN2CCN(c3cccc4c3OCO4)CC2)CC1` [Example 75, N-trans-1-{4-[2-(4-Benzo[1,3]dioxol-4-yl-piperazin-1-yl)-ethyl]-cyclohexyl}-3-(4-chloro-phenyl)-urea], for which the Ki at D2 receptor is 158 nM; on D3 receptor, 1.04 nM.

These data come from patent publication US8722683B2, “Benzodioxole piperazine compounds” (Hoffmann LA-Roche Inc., priority 2011, dated 2014).
